Experimental data: US5179085A, “N-substituted α-amino acids and derivatives thereof having pharmaceutical activity” (Warner-Lambert Company, priority 1991, dated 1993)
Where a name gives a salt, the structure may show the parent alone.

Assays:
NMDA receptors = assay: [3H]CPP NMDA receptor binding assay; conditions: for IC50: [3H]CPP displacement; for % Inhibition (10^-4 M): at 10^-4 M
Procedure: (§1) Thus, the compounds of Formula I were tested in vitro for their ability to block NMDA receptors in a binding assay with [^3 H]3-(2-carboxypiperazin-4-yl)propyl-1-phosphonic acid ([^3 H]CPP) carried out essentially by a method previously described by Murphy, D. E., et al, Journal of Pharmacology and Experimental Therapeutics, Volume 240, pp 778-784 (1987); and for their ability to inhibit glutamate-induced [Ca^++ ] influx (GCI) carried out essentially by a method previously described by Marcoux, F. W., et al, "Sigma and Phencyclidine like Compounds as Molecular Probes in Biology", pp 735-746, Domino, E. F. and J. N. Kamenka, eds., NPP Books, Ann Arbor, Michigan, 1988 and Choi, D. W., et al, Journal of Neuroscience, Volume 8, pp 185-196 (1988). The aforementioned lest methods are incorporated herein by reference.

[1] = system: glutamate-induced [Ca^++ ] influx; assay: Inhibition of glutamate-induced [Ca++] influx (GCI); type: cell-based
Procedure: as §1

Work on `O=C(O)CNCCC=CP(=O)(O)O` (mixture of isomers) [Example 10a, N-[4-Phosphono-3-butenyl)glycine, diammonium salt. (Mixture of E and Z isomers)] yielded an IC50 (NMDA receptors) of 2450 nM.
`CC(NCC=CCP(=O)(O)O)C(=O)O.Cl` (racemic) [Example 8p, N-(4-Phosphono-2-butenyl)-DL-alanine, monohydrochloride] was tested, and the “% Inhibition (10^-4 M)” value (NMDA receptors) was 58%.
`O=C(O)CNCc1cccc(CP(=O)(O)O)c1` [Example 8d, N-[[3-(Phosphonomethyl)phenyl]methyl]glycine, hydrochloride] gave an IC50 (NMDA receptors) of 2240 nM and an IC50 [1] of 79 µM.
With `O=C(O)CNCCc1cccc(CP(=O)(O)O)c1` [Example 8g, N-[2-[3-(Phosphonomethyl)phenyl]ethyl] glycine, monohydrochloride] the “% Inhibition (10^-4 M)” value (NMDA receptors) was 86%.
For `O=C(O)CNCc1ccc(CP(=O)(O)O)cc1` [Example 8h, N-[[4-(Phosphonomethyl)phenyl]methyl]glycine, monohydrochloride], the IC50 (NMDA receptors) was 5200 nM and the IC50 [1] was 120 µM.
`O=C(O)CNCC=CCP(=O)(O)O` [Example 8o, N-(4-Phosphono-2-butenyl)glycine, monohydrochloride] gave an IC50 (NMDA receptors) of 1200 nM and an IC50 [1] of 18 µM.
